Several values for one entry are separate records, joined by “and”; a condition that tells them apart may be missing. Identical values can stand only once. Toxic doses and inconclusive results are not listed.
System: P388 leukemia ip, CD2F1 mice, survival T/C
Assay: NCI In Vivo Anticancer Drug Screen. Data for tumor model P388 Leukemia (intraperitoneal) in CD2F1 (CDF1) mice
Conditions: endpoint: median survival time, higher = longer survival
Procedure, shortened: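 Mice carrying the transplanted tumor received test compound or vehicle. Survival was recorded in each group, and the value is the treated-group measurement divided by that of the vehicle-treated control group.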

[1] = dose: 100.0 mg/kg/injection, schedule: Q04DX003 (ip), vehicle: saline with Tween-80
[2] = dose: 50.0 mg/kg/injection, schedule: Q01DX009 (ip), vehicle: Klucel (hydroxypropylcellulose) (HPC)
[3] = dose: 100.0 mg/kg/injection, schedule: Q01DX009 (ip), vehicle: Klucel (hydroxypropylcellulose) (HPC)
[4] = dose: 200.0 mg/kg/injection, schedule: Q01DX009 (ip), vehicle: Klucel (hydroxypropylcellulose) (HPC)
[5] = dose: 100.0 mg/kg/injection, schedule: Q01DX009 (ip), vehicle: saline with Tween-80
[6] = dose: 200.0 mg/kg/injection, schedule: Q01DX009 (ip), vehicle: saline with Tween-80

Cc1nc(N)c2nc(SCc3ccc(Cl)cc3)c(N)nc2n1
T/C (dose: 25.0 mg/kg/injection, schedule: Q04DX003 (ip), vehicle: saline with Tween-80): 100 % of control
T/C (dose: 50.0 mg/kg/injection, schedule: Q04DX003 (ip), vehicle: saline with Tween-80): 90 % of control
T/C [1]: 92 % of control

c1ccc2c(NCCCCCCCCNc3c4ccccc4nc4ccccc34)c3ccccc3nc2c1
T/C (dose: 0.62 mg/kg/injection, schedule: Q## X009 (ip), vehicle: lactic acid): 121 % of control
T/C (dose: 0.63 mg/kg/injection, schedule: Q01DX009 (ip), vehicle: other): 104 % of control and 114 % of control
T/C (dose: 1.25 mg/kg/injection, schedule: Q01DX009 (ip), vehicle: lactic acid): 161 % of control
T/C (dose: 1.25 mg/kg/injection, schedule: Q01DX009 (ip), vehicle: saline): 124 % of control
T/C (dose: 2.5 mg/kg/injection, schedule: Q01DX009 (ip), vehicle: lactic acid): 159 % of control
T/C (dose: 2.5 mg/kg/injection, schedule: Q## X009 (ip), vehicle: lactic acid): 154 % of control
T/C (dose: 10.0 mg/kg/injection, schedule: Q01DX009 (ip), vehicle: saline): 153 % of control
T/C (dose: 40.0 mg/kg/injection, schedule: Q01DX009 (ip), vehicle: saline): 90 % of control
T/C (dose: 80.0 mg/kg/injection, schedule: Q04DX003 (ip), vehicle: Klucel (hydroxypropylcellulose) (HPC)): 88 % of control

O=C1/C(=C/c2ccc(Br)cc2)CCc2ccccc21
T/C [2]: 105 % of control
T/C [3]: 111 % of control
T/C [4]: 105 % of control

Nc1ccccc1C(=O)CCc1c[nH]c2ccccc12
T/C (dose: 60.0 mg/kg/injection, schedule: Q01DX005 (ip), vehicle: saline with Tween-80): 96 % of control
T/C (dose: 120.0 mg/kg/injection, schedule: Q01DX005 (ip), vehicle: saline with Tween-80): 90 % of control
T/C (dose: 240.0 mg/kg/injection, schedule: Q01DX005 (ip), vehicle: saline with Tween-80): 86 % of control

CCCOC(CN(C)C)C(Cl)(Cl)Cl (stereo not drawn)
T/C [2]: 101 % of control
T/C [3]: 104 % of control
T/C [4]: 100 % of control

Cc1ccc(S(=O)(=O)Nc2cccc3c(NS(=O)(=O)c4ccc(C)cc4)cccc23)cc1
T/C [5]: 100 % of control
T/C [1]: 100 % of control
T/C [6]: 95 % of control
T/C (dose: 200.0 mg/kg/injection, schedule: Q04DX003 (ip), vehicle: saline with Tween-80): 90 % of control
T/C (dose: 400.0 mg/kg/injection, schedule: Q04DX003 (ip), vehicle: saline with Tween-80): 100 % of control

Cc1cc(C)cc(NCCC#N)c1
T/C (dose: 100.0 mg/kg/injection, schedule: Q04DX003 (ip), vehicle: other): 109 % of control
T/C (dose: 200.0 mg/kg/injection, schedule: Q04DX003 (ip), vehicle: other): 109 % of control

CC(=O)Nc1ccc(N=Nc2c(S(=O)(=O)O)cc3cc(NC(C)=O)ccc3c2O)cc1
T/C (dose: 50.0 mg/kg/injection, schedule: Q01DX005 (ip), vehicle: saline): 98 % of control and 100 % of control
T/C (dose: 100.0 mg/kg/injection, schedule: Q01DX005 (ip), vehicle: saline): 100 % of control and 103 % of control
T/C (dose: 200.0 mg/kg/injection, schedule: Q01DX005 (ip), vehicle: saline): 99 % of control

COC(=O)C(O)c1ccc2c(c1)OCO2 (stereo not drawn)
T/C [5]: 90 % of control
T/C [6]: 90 % of control
T/C (dose: 400.0 mg/kg/injection, schedule: Q01DX009 (ip), vehicle: saline with Tween-80): 104 % of control

CC(=O)CC(C)=NCC(C)N=C(C)CC(C)=O (stereo not drawn)
T/C (dose: 100.0 mg/kg/injection, schedule: Q04DX003 (ip), vehicle: saline): 100 % of control
T/C (dose: 200.0 mg/kg/injection, schedule: Q04DX003 (ip), vehicle: saline): 100 % of control
T/C (dose: 400.0 mg/kg/injection, schedule: Q04DX003 (ip), vehicle: saline): 100 % of control

CN(C)CCCNC(CC#N)CCC#N (stereo not drawn)
T/C (dose: 50.0 mg/kg/injection, schedule: Q01DX009 (ip), vehicle: saline): 109 % of control
T/C (dose: 100.0 mg/kg/injection, schedule: Q01DX009 (ip), vehicle: saline): 104 % of control
T/C (dose: 200.0 mg/kg/injection, schedule: Q01DX009 (ip), vehicle: saline): 109 % of control

c1ccc2c(c1)oc1cc3c(cc12)nnc1cccn13
T/C (dose: 25.0 mg/kg/injection, schedule: Q01DX005 (ip), vehicle: Klucel (hydroxypropylcellulose) (HPC)): 100 % of control
T/C (dose: 50.0 mg/kg/injection, schedule: Q01DX005 (ip), vehicle: Klucel (hydroxypropylcellulose) (HPC)): 96 % of control
T/C (dose: 100.0 mg/kg/injection, schedule: Q01DX005 (ip), vehicle: Klucel (hydroxypropylcellulose) (HPC)): 92 % of control
T/C (dose: 200.0 mg/kg/injection, schedule: Q01DX005 (ip), vehicle: Klucel (hydroxypropylcellulose) (HPC)): 86 % of control

COc1nc(N=[N+]=[N-])nc(-c2c(OC)ccc3ccccc23)n1
T/C (dose: 25.0 mg/kg/injection, schedule: Q01DX005 (ip), vehicle: saline with Tween-80): 105 % of control
T/C (dose: 50.0 mg/kg/injection, schedule: Q01DX005 (ip), vehicle: saline with Tween-80): 96 % of control
T/C (dose: 100.0 mg/kg/injection, schedule: Q01DX005 (ip), vehicle: saline with Tween-80): 89 % of control
T/C (dose: 200.0 mg/kg/injection, schedule: Q01DX005 (ip), vehicle: saline with Tween-80): 89 % of control
